From ChEMBL document CHEMBL1201862, “PubChem BioAssay data set” (2004)
Active and inactive are the calls of the source.

Legend:
Format in all cases: functional
[1] = molecular target: ALK tyrosine kinase receptor (Homo sapiens, UniProt Q9UM73);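 further: ALK tested as one member of a kinase panel screen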
[2] = molecular target: Tyrosine-protein kinase ABL1 (Homo sapiens, UniProt P00519)
[3] = molecular target: T1, Serine/threonine-protein kinase D2 (Homo sapiens, UniProt Q9BZL6);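 further: measured against PRKD2 as one member of a kinome-wide kinase profiling panel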
T1 sequence (Q9BZL6 whole entry): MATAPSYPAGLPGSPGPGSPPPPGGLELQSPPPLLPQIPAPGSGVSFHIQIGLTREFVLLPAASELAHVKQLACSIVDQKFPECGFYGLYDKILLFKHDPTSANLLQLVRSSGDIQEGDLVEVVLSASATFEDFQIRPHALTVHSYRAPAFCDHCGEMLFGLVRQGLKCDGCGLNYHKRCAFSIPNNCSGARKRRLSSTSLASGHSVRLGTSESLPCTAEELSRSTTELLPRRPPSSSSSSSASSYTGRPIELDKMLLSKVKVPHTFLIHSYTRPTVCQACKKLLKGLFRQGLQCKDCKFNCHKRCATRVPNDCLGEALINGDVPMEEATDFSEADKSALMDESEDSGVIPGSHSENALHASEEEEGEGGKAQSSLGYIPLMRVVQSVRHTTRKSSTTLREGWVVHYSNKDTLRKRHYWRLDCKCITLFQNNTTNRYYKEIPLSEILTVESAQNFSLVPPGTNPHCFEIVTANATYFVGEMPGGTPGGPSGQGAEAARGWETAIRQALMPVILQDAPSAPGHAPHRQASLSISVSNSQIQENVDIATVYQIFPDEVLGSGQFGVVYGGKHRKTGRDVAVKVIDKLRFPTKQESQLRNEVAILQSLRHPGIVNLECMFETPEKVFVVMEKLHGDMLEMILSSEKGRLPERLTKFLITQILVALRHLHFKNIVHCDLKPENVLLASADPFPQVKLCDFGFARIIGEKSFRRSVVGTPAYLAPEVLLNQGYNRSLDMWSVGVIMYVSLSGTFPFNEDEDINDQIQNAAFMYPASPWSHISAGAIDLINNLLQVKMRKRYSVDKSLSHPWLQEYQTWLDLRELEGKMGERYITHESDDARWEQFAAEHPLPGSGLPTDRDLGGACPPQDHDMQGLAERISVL

[4] = molecular target: Glycogen synthase kinase-3 alpha (Homo sapiens, UniProt P49840);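 further: GSK3A result taken from a broad kinome-wide kinase panel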
Chain of Glycogen synthase kinase-3 alpha (P49840 whole entry): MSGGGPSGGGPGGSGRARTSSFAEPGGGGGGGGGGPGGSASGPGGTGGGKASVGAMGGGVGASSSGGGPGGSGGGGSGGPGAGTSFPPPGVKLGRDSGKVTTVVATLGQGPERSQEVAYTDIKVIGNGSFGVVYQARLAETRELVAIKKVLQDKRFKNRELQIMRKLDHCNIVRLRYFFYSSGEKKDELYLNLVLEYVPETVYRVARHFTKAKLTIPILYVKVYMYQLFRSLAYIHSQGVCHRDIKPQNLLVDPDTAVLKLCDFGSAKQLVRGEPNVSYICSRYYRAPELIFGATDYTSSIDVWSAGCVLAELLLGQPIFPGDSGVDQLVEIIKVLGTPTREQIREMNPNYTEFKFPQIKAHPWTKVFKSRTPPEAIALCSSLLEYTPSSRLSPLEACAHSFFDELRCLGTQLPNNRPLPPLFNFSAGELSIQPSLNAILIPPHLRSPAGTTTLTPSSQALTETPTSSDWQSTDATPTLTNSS

[5] = molecular target: STE20-like serine/threonine-protein kinase (Homo sapiens, UniProt Q9H2G2)
Chain of STE20-like serine/threonine-protein kinase (Q9H2G2 whole entry): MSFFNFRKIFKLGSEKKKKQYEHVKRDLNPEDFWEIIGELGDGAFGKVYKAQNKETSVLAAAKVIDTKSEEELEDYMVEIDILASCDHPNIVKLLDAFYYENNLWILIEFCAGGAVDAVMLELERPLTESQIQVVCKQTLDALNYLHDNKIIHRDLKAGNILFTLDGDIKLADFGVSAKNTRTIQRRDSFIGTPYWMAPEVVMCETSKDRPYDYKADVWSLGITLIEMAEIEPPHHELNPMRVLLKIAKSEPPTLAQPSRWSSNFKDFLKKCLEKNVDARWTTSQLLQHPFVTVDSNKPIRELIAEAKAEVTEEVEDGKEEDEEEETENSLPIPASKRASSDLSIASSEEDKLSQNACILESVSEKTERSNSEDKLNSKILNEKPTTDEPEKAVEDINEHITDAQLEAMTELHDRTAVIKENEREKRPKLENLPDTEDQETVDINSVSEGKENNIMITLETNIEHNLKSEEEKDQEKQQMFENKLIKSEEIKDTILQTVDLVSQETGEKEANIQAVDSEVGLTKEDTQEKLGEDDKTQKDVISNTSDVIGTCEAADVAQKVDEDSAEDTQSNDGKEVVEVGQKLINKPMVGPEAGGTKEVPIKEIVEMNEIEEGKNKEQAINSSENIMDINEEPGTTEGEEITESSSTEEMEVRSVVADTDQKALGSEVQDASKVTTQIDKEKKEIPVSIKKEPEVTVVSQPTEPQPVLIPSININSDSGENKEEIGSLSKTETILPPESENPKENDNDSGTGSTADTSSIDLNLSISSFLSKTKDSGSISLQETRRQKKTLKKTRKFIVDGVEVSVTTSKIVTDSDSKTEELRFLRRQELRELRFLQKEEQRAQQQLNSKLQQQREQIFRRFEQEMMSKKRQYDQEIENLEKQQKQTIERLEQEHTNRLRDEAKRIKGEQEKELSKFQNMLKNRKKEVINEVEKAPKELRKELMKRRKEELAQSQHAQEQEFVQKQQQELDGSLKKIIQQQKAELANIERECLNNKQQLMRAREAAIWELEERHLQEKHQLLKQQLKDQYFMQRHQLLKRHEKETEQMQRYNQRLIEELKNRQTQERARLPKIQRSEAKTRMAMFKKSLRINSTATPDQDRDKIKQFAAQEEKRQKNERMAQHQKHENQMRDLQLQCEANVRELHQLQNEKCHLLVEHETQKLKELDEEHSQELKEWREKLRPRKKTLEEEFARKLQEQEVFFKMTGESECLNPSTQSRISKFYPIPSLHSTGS

[6] = molecular target: Serine/threonine-protein kinase 3 (Homo sapiens, UniProt Q13188);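 further: measured as one member of a kinome-wide kinase panel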
Chain of Serine/threonine-protein kinase 3 (Q13188 whole entry): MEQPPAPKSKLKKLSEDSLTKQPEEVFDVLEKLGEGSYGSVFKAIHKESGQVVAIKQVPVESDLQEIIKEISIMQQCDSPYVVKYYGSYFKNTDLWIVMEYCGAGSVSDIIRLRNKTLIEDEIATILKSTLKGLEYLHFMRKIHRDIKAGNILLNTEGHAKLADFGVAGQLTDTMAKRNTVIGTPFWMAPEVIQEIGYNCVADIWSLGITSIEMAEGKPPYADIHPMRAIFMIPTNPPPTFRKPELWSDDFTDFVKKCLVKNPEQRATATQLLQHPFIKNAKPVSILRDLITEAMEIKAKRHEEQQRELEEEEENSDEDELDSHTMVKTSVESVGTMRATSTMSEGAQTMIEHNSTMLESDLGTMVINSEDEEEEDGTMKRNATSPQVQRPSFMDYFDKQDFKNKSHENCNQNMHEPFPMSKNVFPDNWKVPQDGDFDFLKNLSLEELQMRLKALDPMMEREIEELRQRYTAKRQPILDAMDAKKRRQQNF

[7] = molecular target: T2, Serine/threonine-protein kinase 17A (Homo sapiens, UniProt Q9UEE5)
T2 sequence (Q9UEE5 whole entry): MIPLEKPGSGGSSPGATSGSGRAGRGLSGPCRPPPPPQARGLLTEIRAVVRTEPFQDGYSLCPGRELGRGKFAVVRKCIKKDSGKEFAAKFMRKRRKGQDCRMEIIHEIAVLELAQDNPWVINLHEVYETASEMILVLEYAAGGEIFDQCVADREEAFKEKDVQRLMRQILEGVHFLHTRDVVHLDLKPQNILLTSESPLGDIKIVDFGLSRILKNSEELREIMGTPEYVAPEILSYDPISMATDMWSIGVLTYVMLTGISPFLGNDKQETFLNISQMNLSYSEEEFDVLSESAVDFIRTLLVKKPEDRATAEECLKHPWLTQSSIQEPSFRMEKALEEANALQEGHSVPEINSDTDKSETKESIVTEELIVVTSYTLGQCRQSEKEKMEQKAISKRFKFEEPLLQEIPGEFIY

[8] = molecular target: Serine/threonine-protein kinase PLK1 (Homo sapiens, UniProt P53350);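 further: PLK1 measured as one member of a kinome-wide profiling panel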
Chain of Serine/threonine-protein kinase PLK1 (P53350 whole entry): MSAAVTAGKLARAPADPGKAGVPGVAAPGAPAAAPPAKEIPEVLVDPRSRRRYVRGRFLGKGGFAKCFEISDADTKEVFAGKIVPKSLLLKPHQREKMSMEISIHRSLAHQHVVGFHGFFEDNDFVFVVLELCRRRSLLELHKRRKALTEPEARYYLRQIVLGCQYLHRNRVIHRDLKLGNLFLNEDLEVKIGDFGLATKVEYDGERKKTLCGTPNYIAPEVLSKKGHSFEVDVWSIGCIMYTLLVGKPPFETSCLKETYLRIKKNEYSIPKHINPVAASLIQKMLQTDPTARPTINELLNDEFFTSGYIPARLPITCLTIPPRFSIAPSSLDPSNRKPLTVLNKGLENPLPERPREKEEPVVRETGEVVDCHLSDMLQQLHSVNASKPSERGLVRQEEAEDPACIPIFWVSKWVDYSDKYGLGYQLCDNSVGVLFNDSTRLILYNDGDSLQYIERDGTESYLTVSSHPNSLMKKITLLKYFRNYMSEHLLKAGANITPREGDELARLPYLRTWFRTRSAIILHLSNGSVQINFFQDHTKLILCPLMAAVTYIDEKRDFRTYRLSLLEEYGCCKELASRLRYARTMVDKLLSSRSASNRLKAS

[9] = molecular target: BDNF/NT-3 growth factors receptor (Homo sapiens, UniProt Q16620);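 further: NTRK2 measured as one member of a broad kinome-wide kinase profiling panel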
Chain of BDNF/NT-3 growth factors receptor (Q16620 whole entry): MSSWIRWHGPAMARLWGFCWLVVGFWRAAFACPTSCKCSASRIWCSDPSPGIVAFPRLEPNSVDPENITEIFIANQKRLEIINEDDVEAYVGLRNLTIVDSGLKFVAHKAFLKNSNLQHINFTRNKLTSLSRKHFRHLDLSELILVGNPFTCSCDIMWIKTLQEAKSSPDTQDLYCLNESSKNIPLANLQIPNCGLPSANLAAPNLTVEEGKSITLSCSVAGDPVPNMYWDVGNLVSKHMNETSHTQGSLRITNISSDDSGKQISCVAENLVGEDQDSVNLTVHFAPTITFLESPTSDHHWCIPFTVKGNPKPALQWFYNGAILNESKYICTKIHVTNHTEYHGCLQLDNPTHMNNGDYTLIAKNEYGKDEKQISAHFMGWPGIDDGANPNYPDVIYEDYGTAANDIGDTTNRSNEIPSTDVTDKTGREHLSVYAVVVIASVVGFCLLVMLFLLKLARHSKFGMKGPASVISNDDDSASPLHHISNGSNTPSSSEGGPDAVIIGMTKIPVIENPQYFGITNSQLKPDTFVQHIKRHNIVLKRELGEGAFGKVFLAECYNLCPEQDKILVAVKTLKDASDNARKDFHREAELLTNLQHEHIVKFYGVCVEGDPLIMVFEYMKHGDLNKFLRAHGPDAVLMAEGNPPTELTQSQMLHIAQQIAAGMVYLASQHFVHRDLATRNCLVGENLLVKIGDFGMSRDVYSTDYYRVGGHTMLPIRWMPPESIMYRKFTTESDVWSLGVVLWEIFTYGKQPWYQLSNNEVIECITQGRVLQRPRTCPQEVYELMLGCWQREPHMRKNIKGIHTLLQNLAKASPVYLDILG

[10] = molecular target: Serine/threonine-protein kinase N2 (Homo sapiens, UniProt Q16513)
Chain of Serine/threonine-protein kinase N2 (Q16513 whole entry): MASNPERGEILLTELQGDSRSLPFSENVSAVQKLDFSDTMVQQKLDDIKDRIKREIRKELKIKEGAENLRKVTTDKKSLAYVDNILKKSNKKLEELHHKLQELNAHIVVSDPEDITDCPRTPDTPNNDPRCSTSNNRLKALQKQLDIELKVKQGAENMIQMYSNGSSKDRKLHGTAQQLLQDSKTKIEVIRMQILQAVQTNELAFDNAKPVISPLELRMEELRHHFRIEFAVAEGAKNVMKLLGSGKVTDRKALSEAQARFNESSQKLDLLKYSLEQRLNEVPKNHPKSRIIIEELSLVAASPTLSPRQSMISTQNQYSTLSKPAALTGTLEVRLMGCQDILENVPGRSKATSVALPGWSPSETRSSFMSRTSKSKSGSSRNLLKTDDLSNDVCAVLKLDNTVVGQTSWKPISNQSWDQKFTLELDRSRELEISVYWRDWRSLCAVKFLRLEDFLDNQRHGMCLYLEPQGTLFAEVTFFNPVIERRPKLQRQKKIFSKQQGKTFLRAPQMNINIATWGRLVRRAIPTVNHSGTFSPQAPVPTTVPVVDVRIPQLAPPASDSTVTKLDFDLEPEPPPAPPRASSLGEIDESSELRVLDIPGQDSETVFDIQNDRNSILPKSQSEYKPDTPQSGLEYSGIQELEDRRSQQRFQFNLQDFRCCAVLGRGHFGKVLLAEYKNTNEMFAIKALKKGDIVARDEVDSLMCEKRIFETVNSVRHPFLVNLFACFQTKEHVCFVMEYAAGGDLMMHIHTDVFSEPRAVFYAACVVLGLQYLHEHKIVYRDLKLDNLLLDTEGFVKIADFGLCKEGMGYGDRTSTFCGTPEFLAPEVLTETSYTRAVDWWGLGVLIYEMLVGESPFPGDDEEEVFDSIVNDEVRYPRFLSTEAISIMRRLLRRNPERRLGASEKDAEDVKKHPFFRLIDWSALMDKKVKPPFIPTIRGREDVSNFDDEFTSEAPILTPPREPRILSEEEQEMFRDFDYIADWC

[11] = molecular target: Ephrin type-A receptor 2 (Homo sapiens, UniProt P29317);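 further: EPHA2 tested as one member of a kinome-wide kinase panel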
[12] = molecular target: Mitogen-activated protein kinase 9 (Homo sapiens, UniProt P45984);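 further: value from a kinome panel profiling assay, MAPK9 panel entry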
Chain of Mitogen-activated protein kinase 9 (P45984 whole entry): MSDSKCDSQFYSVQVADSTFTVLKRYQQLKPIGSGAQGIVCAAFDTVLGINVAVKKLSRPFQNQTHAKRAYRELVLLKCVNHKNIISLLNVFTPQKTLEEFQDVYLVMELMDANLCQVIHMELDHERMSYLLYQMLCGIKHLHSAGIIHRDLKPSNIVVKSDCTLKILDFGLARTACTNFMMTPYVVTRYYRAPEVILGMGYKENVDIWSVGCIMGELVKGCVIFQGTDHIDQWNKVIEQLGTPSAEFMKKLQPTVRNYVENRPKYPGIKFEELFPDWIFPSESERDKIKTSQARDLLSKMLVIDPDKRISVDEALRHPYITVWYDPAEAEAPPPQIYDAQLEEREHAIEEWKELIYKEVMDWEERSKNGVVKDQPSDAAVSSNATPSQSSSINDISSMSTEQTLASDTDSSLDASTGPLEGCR

[13] = molecular target: T3, Serine/threonine-protein kinase BRSK1 (Homo sapiens, UniProt Q8TDC3);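 further: measured within a kinome-wide kinase panel, with the target listed as KIAA1811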
T3 sequence (Q8TDC3 whole entry): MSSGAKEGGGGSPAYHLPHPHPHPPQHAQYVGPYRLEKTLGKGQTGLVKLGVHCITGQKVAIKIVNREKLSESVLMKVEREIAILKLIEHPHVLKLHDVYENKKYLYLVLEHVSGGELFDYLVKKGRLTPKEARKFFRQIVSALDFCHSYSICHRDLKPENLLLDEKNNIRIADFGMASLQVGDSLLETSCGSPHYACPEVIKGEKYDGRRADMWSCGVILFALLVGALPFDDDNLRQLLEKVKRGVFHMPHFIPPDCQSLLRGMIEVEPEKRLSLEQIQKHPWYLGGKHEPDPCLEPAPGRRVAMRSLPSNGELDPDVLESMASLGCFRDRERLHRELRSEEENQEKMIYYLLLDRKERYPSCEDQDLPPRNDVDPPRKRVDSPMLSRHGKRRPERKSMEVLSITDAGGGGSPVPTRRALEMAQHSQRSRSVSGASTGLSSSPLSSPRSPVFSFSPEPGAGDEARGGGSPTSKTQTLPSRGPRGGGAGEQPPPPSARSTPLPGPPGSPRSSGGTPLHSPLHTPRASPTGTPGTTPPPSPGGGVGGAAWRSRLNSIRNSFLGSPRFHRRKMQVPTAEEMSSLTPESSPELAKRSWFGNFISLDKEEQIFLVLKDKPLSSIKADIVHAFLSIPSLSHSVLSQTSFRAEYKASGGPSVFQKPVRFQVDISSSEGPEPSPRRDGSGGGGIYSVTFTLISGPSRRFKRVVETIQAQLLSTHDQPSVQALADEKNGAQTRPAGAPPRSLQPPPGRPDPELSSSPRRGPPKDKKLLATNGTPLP

[14] = molecular target: Receptor tyrosine-protein kinase erbB-2 (Homo sapiens, UniProt P04626); assay: Navigating the Kinome. Panel member name: ERBB2

Structure (SMILES) | Ki [1] | Ki [2] | Ki [3] | Ki [4] | Ki [5] | Ki [6] | Ki [7] | Ki [8] | Ki [9] | Ki [10] | Ki [11] | Ki [12] | Ki [13] | Ki [14] | further results
NC(=O)c1cc(-c2ccnc(N)n2)[nH]c1-c1ccc(Cl)cc1Cl | > 1260 nM (inactive) | > 631 nM (inactive) | 316 nM (active) | 6.31 nM (active) | 10000 nM (active) | > 3160 nM (inactive) | 25.1 nM (active) | > 7940 nM (inactive) | > 3980 nM (inactive) | 20 nM (active) | > 3160 nM (inactive) | 501 nM (active) | 6310 nM (active) | > 1580 nM (inactive) | pKi [3]: 6.5; pKi [4]: 8.2; pKi [5]: 5; pKi [7]: 7.6; pKi [10]: 7.7; pKi [12]: 6.3; pKi [13]: 5.2
NC(COc1cncc(-c2ccc3c(c2)C(=Cc2ccco2)C(=O)N3)c1)Cc1c[nH]c2ccccc12 (stereo not given) | > 1260 nM (inactive) | > 631 nM (inactive) | 15.8 nM (active) | 398 nM (active) | 158 nM (active) | 12.6 nM (active) | 15.8 nM (active) | 2510 nM (active) | 316 nM (active) | 5.01 nM (active) | > 3160 nM (inactive) | 398 nM (active) | 158 nM (active) | 1000 nM (active) | 
